In US7265129B2, “Anti-infective biaryl compounds” (priority 2002, dated 2007):

Legend:
C. albicans ATCC 38247 = test: MIC, antifungal assay, C. albicans; assay type: cell-based, Candida albicans
Excerpt: (§1) It vitro biological activity data were collected for a variety of microorganisms, including Bacillus cereus (ATCC 11778), Staphylococcus aureus (ATCC 33591; ATCC 27660, a methicillin resistant strain (MRSA); ATCC 13709, a methicillin sensitive strain (MSSA)), Enterococcus faecalis (ATCC 29212), and Streptococcus pneumoniae (ATCC 49619). Additionally, antifungal activity data were collected for Candida albicans (ATCC 38247).
(§2) Compounds according to this invention were screened for their in vitro activities against selected species of bacteria and fungi. The minimal inhibition concentration (MIC) of these compounds was determined using the National Committee for Clinical Laboratory Standards (NCCLS) broth microdilution assay in microtiter plates, as set forth in: (1) the guidelines of the National Committee for Clinical Laboratory Standards (NCCLS) Document M7-A4 (NCCLS, 1997); (2) the guidelines of the National Committee for Clinical Laboratory Standards (NCCLS) Document M11-A4 (NCCLS, 1997); and (3) the guidelines and reference method of the National Committee for Clinical Laboratory Standards (NCCLS) Document M27-T (NCCLS, 1995). For antifungal assays, the method recommended in Murray, P R., 1995 Manual of Clinical Microbiology (ASM Press, Washington, D.C.), was employed.

B. cereus ATCC 11778 = test: MIC, NCCLS broth microdilution, B. cereus; assay type: cell-based, Bacillus cereus
Excerpt: as §1, §2

S. pneumoniae ATCC 49619 = test: MIC, NCCLS broth microdilution, S. pneumoniae; assay type: cell-based, Streptococcus pneumoniae
Excerpt: as §1, §2

S. aureus ATCC 33591 = test: MIC, NCCLS broth microdilution, S. aureus ATCC 33591; assay type: cell-based, Staphylococcus aureus
Excerpt: as §1, §2

S. aureus ATCC 27660 = test: MIC, NCCLS broth microdilution, S. aureus MRSA; assay type: cell-based, Staphylococcus aureus; settings: S. aureus ATCC 27660, methicillin resistant strain (MRSA)
Excerpt: as §1, §2

S. aureus ATCC 13709 = test: MIC, NCCLS broth microdilution, S. aureus MSSA; assay type: cell-based, Staphylococcus aureus; settings: S. aureus ATCC 13709, methicillin sensitive strain (MSSA)
Excerpt: as §1, §2

E. faecalis ATCC 29212 = test: MIC, NCCLS broth microdilution, E. faecalis; assay type: cell-based, Enterococcus faecalis
Excerpt: as §1, §2

Row | Structure (SMILES) | Minimum Inhibitory Concentration (MIC), organism B (C. albicans ATCC 38247) [µg/mL] | Minimum Inhibitory Concentration (MIC), organism A (B. cereus ATCC 11778) | Minimum Inhibitory Concentration (MIC), organism G (S. pneumoniae ATCC 49619) | Minimum Inhibitory Concentration (MIC), organism F (S. aureus ATCC 33591) | Minimum Inhibitory Concentration (MIC), organism E (S. aureus ATCC 27660) | Minimum Inhibitory Concentration (MIC), organism D (S. aureus ATCC 13709) | Minimum Inhibitory Concentration (MIC), organism C (E. faecalis ATCC 29212)
1 | CN(C)CCCn1cc(NC(=O)c2cc3ccccc3cn2)cc1C(=O)Nc1cc(-c2nc3ncccc3[nH]2)n(C)c1 [Compound A-12] | >32 | +++ (MIC ≦ 4 μg/mL) | +++ (MIC ≦ 4 μg/mL) | +++ (MIC ≦ 4 μg/mL) | +++ (MIC ≦ 4 μg/mL) | +++ (MIC ≦ 4 μg/mL) | +++ (MIC ≦ 4 μg/mL)
2 | Cn1cc(NC(=O)c2cc(NC(=O)c3ccc(Cl)cc3F)cn2CCCN2CCOCC2)cc1-c1nc2ccccc2[nH]1 [Compound A-37] | >32 | +++ (MIC ≦ 4 μg/mL) | +++ (MIC ≦ 4 μg/mL) | +++ (MIC ≦ 4 μg/mL) | +++ (MIC ≦ 4 μg/mL) | +++ (MIC ≦ 4 μg/mL) | +++ (MIC ≦ 4 μg/mL)
3 | Cc1cccc2nc(-c3cc(NC(=O)c4cc(NC(=O)c5cc6ccccc6cn5)cn4C)cn3C)[nH]c12 [Compound A-3] | >32 | >32 µg/mL | >32 µg/mL | >32 µg/mL | >32 µg/mL | >32 µg/mL | >32 µg/mL
4 | Cn1cc(NC(=O)c2cc3ccccc3cn2)cc1C(=O)Nc1cc(-c2nc3ccc(OCCN4CCOCC4)cc3[nH]2)n(C)c1 [Compound A-10] | >32 | +++ (MIC ≦ 4 μg/mL) | +++ (MIC ≦ 4 μg/mL) | +++ (MIC ≦ 4 μg/mL) | +++ (MIC ≦ 4 μg/mL) | +++ (MIC ≦ 4 μg/mL) | +++ (MIC ≦ 4 μg/mL)
5 | Cn1cc(NC(=O)c2cc(NC(=O)c3sc4ccccc4c3Cl)cn2CCCN2CCOCC2)cc1-c1nc2ccccc2[nH]1 [Compound A-26] | >32 | +++ (MIC ≦ 4 μg/mL) | +++ (MIC ≦ 4 μg/mL) | +++ (MIC ≦ 4 μg/mL) | +++ (MIC ≦ 4 μg/mL) | +++ (MIC ≦ 4 μg/mL) | +++ (MIC ≦ 4 μg/mL)
6 | Cn1cc(NC(=O)c2cc3ccccc3cn2)cc1C(=O)Nc1cc(-c2nc3ccc(NC(=O)CCN4CCOCC4)cc3[nH]2)n(C)c1 [Compound A-11] | >32 | +++ (MIC ≦ 4 μg/mL) | +++ (MIC ≦ 4 μg/mL) | +++ (MIC ≦ 4 μg/mL) | +++ (MIC ≦ 4 μg/mL) | +++ (MIC ≦ 4 μg/mL) | +++ (MIC ≦ 4 μg/mL)
7 | Cn1cc(NC(=O)c2cc(NC(=O)c3ccc(Cl)cc3F)cn2CCCN(CCO)CCO)cc1-c1nc2cccnc2[nH]1 [Compound A-44] | >32 | + (12 ≦ MIC ≦ 32 μg/mL) | +++ (MIC ≦ 4 μg/mL) | +++ (MIC ≦ 4 μg/mL) | +++ (MIC ≦ 4 μg/mL) | ++ (4 < MIC < 12 μg/mL) | ++ (4 < MIC < 12 μg/mL)
